One test deals with MexG (Pseudomonas aeruginosa, UniProt Q9HWH6). Kind of test: intrinsic tryptophan fluorescence quenching. The class given is binding.
The next test addresses T1, MexG-HAWA (Pseudomonas aeruginosa, UniProt Q9HWH6, H95A/W98A).
T1 sequence (Q9HWH6 1-148 H95A/W98A): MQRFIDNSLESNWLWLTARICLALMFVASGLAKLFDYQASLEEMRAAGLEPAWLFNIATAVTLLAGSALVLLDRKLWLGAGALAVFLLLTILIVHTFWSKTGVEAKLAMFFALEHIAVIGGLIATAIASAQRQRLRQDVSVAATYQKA
As to the kind of experiment: intrinsic tryptophan fluorescence quenching. The format is binding.

Consider one compound from article PMC5807214 (ACS infectious diseases, 2017).

SMILES strings stand for the structures.

A word on the Kd: it is the equilibrium constant for the complex coming apart. Read a low Kd as higher affinity. As for `Cn1c2cccc(=O)c-2nc2ccccc21` [pyocyanin], the Kd at MexG was around 0.6 µM; on MexG-HAWA, around 7 µM.
